Columns and labels:
CLL cells = assay: Phospho-specific multiparametric flow cytometry of BCR signaling in CLL patient samples; type: cell-based, human
Method: (§1) Ramos cells were maintained and cultured using methods known in the art. Cells from CLL patients were obtained using methods known in the art.
(§2) The cell suspension was added drop-wise into media. […] Cells were incubated at 37° C. for 2 hours. […] Cells were aliquoted into wells.
(§3) Cells were washed twice. […] Cocktail • (i) CD3 pac blue=160 μl • (ii) CD4 APC=80 μl • (iii) CD8 PE Cy7=80 μl • (iv) CD5 PE Cy5=400 μl • (v) CD20 PerCP Cy5.5=800 μl • (vi) p-Erk=800 μl • (vii) p-BLNK=800 μl • (viii) p-Syk/ZAP70=800 μl • b. […] Each well received 100 μl of this cocktail mix.
Cells were prepared and stained as described above.

[1] = tested on: blood B cells from healthy donors
Method: BCR cross-linking and preparation for staining: Cells were thawed at 37° C. in a water bath until partially thawed (˜50%). Cells were thawed into 5% FBS/RPMI at room temperature. The cell suspension was added drop-wise into media. Cells were centrifuged at 900 RPM for 10 minutes with no brake. The supernatants were decanted and pellets resuspended in 25 milliliters (ml) of media. Cells were re-centrifuged at 900 RPM for 10 minutes, decanted again and resuspended in 5 ml of 1% FBS/RPMI. Cells were counted with a hemocytometer using trypan blue staining. The concentration of the cells was adjusted as necessary to reduce crowding. Cells were incubated at 37° C. for 2 hours. The final cell concentration, including additives and reagents (e.g. stimulant, Fab fragment, H2O2, aqua, etc.) was 1.6 million/ml. Cells were aliquoted into wells. […]
Analysis by Flow Cytometry: Between 10,000 and 100,000 un-gated events were collected for each sample on the BD LSR II flow cytometry machine. The fluorescent anti-bodies directed to extra-cellular markers (i.e. CD3, CD4, CD8, CD5 and CD20) were used to mark the cells and a hierarchical gating strategy was used to identify the B-Cells and mature B-Cell population among the recorded events as described below: • a. […] All the recorded events were also marked by the following intra-cellular markers p-Erk, p-Syk/Zap70, and p-BLNK. […]

Ramos cells = assay: Phospho-specific multiparametric flow cytometry of BCR signaling in Ramos cells; type: cell-based; conditions: FIG. 1, fluorescence above autofluorescence and background
Method: as §1, §2, §3

[2] = CD20+/CD5+ cell population of CLL samples, kinetics

SMILES | PLCγ2 phosphorylation (CLL cells; [2]) | phosphorylation of rpS6 (CLL cells; [2]) | levels of phosphorylated p72SYK/p70ZAP, ERK1/2, BLNK, and PLCγ2 (CLL cells; CLL cells of some patients, independent of surface F(ab)2anti-μ ligation) | activation of Erk and Syk (CLL cells; CLL samples, inhibition of phosphatases, FIG. 6) | tonic BCR signaling revealed by inhibition of phosphatases (CLL cells; other CLL samples, FIG. 10) | responsiveness (phosphorylated p72SYK/p70ZAP, ERK1/2, BLNK, PLCγ2) (CLL cells; other CLL-B cells, even in the presence of F(ab)2anti-μ) | phosphorylation of p72SYK/p70ZAP, ERK1/2, BLNK, PLCγ2 ([1]; blood B cells from healthy donors) | activation of signaling post BCR ([1]; normal B cells, H2O2 by itself, FIG. 7) | activation of p-Erk and p-Syk/pZap70 (Ramos cells) | activation of p-Erk across patients (CLL cells; CLL patient samples, regardless of ZAP70 expression (summary)) | p-Erk and p-Syk phosphorylation (CLL cells; CLL samples with low and high frequency of ZAP70, FIG. 5) | Erk and Syk phosphorylation (CLL cells; other CLL samples, FIG. 9) | activation of Erk (CLL cells; pheresed CLL samples, FIG. 3)
OO [H2O2, hydrogen peroxide] | increased | attenuates | induced high-levels | activates | does not reveal strong tonic BCR signaling | significantly less responsive | failed to elicit a substantial increase | incapable of activating post BCR by itself |  |  |  |  | 
CCCCCCCCCCCCCC(=O)O[C@@H]1[C@@H](C)[C@@]2(O)[C@@H](C=C(CO)C[C@]3(O)C(=O)C(C)=C[C@@H]23)[C@@H]2C(C)(C)[C@]12OC(C)=O [PMA] |  |  |  |  |  |  |  |  | activates | comparable in all patients | modest | modest | activates
